One data set has as its target ERK2 wild type (WT) (Rattus norvegicus (Rat), UniProt P63086). Description: Fluorescence quenching (FQ) binding affinity. To be noted: 1 nM to 20 μM test compound.
The target in the next data set is ERK2 T157A (Rattus norvegicus (Rat), UniProt P63086, T157A). Nature of the data set: Fluorescence quenching (FQ) binding affinity. To be noted: read-out: KD T157A (Site1).
The next data set addresses ERK2 D319N (Rattus norvegicus (Rat), UniProt P63086, D319N). Description: Fluorescence quenching (FQ) binding affinity. To be noted: read-out: KD D319N (Site1).
The target of a further data set is ERK2 T157A/D319N (Rattus norvegicus (Rat), UniProt P63086, D319N/T157A). Description: Fluorescence quenching (FQ) binding affinity. To be noted: read-out: KD T157A/D319N (Site1).
Data set [1] relates to A375 melanoma cells. Nature of the data set: Cell proliferation WST-1 assay, single dose (Example 4). The class given is cell-based. To be noted: 100 μM, 48 hours. The method in brief: (§1)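 Seed ~5000 cells/well; recover 16-20 h; treat with compound 48 h; add WST-1; read A450, subtract A650; normalize to DMSO-only cells.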
Another data set deals with HL-60 leukemic cells. The description is as above. To be noted: 100 μM, 48 hours. The data set is classed as cell-based. The method in brief:
as §1

Data set [2] relates to HeLa cervical carcinoma cells. Described as above. The data set is classed as cell-based. To be noted: 100 μM, 48 hours. The procedure, abridged:
as §1

For data set [3], the system named is Jurkat T-cell leukemia cells. Described as above. The class given is cell-based. To be noted: 100 μM, 48 hours. The procedure, abridged:
as §1

A further data set concerns RPMI-7951 melanoma cells. The description is as above. The class given is cell-based. To be noted: 100 μM, 48 hours. The method in brief: as §1
Data set [4] deals with SK-MEL-28 melanoma cells. The description is as above. To be noted: 100 μM, 48 hours. The data set is classed as cell-based. The procedure, abridged:
as §1

Data set [5] deals with A375 melanoma cells. Description: Dose-response growth inhibition (GI50) of select compounds. The data set is classed as cell-based. To be noted: Homo sapiens, A-375, 48 h, two days. On the procedure: (§2) An example of the dose response curve for compound 30h and the BRaf inhibitor PLX4032 for inhibiting the growth of melanoma cell lines is shown in FIG. 14. […] A summary of GI50 values for select compounds along with comparisons to know ERK pathway inhibitors in various cell lines is shown in Table 13. […] First, thiazolidinedione compounds have been identified to be selective inhibitors of cancer cell lines containing activated ERK signaling. Second, changes in the 4-ethoxyphenyl component of the parent compound 76 improve selectivity and potency for inhibiting melanoma cell growth. Third, compound 30h is a potent inhibitor of melanoma cell lines that have become resistant to the clinically relevant BRaf and MEK inhibitors. […] Lastly, 30h is as potent as the ATP-competitive pyrazolopyridazinamine ERK inhibitor (FR180204) in preventing melanoma cell proliferation and provides an alternative non-ATP-dependent approach to target cancer cells that are dependent on active ERK signaling.
(§3) Melanoma cells (A375, SK-MEL-28, and RPMI7951) were seeded at a density of 5,000 per well in 96-well plate. After overnight incubation, cells were treated with varying doses of PLX4032 (A) or 31h (B) for two days. Cell viability was determined by the addition of Cell Titer-Blue Reagent (20 μL/well) followed by 2 hours of incubation at 37° C. after which fluorescence was recorded (555/585 nm). Cell viability was expressed as percentage of vehicle control and data represent the average of three individual experiments.

For another data set, the system named is RPMI7951 melanoma cells. Described as above. The data set is classed as cell-based. To be noted: Homo sapiens, RPMI-7951, 48 h, two days. On the procedure: as §2, §3
Data set [6] deals with SK-MEL-28 melanoma cells. The data set is described as above. The data set is classed as cell-based. To be noted: Homo sapiens, SK-MEL-28, 48 h, two days. On the procedure:
as §2, §3

Another data set relates to HeLa cells. The data set is described as above. The data set is classed as cell-based. To be noted: Homo sapiens, HeLa.
For the next data set, the system named is Jurkat cells. The data set is described as above. The class given is cell-based. To be noted: Homo sapiens, Jurkat.
The subject of data set [7] is activator protein-1 (AP-1) promoter. Description: AP-1 promoter luciferase assay, HeLa cells (Example 4). The data set is classed as cell-based. To be noted: Homo sapiens, EGF 25 ng/mL, read-out: estimated IC50 AP-1 promoter activity. On the procedure: (§4) HeLa cells were seeded in 24-well plates (4×10^4 cells/well) and incubated 18 hours prior to achieve ˜60-70% confluent. Cells were transfected with activator protein-1 (pAP1(PMA)-TA-Luc; Clontech) or the serum response element (pGL4.33-SRE; Promega) luciferase reporter plasmids (250 ng/well) using Lipofectamine™ (Invitrogen). After 16 hours, cells were treated with increasing amount of compounds as indicated for 20 minutes, followed by stimulation with EGF (25 ng/mL) for 4.5 hr. The luciferase activity in the cell extracts was determined with a Dual Luciferase Assay System (Promega) according to the manufacturer's instructions. Luciferase activities were monitored with a Lumat LB 9507 luminometer (Berthold Technology) and data were normalized to the amount of protein in each sample.

The subject of data set [8] is serum response element (SRE). Description: SRE promoter luciferase assay, HeLa cells (Example 4). The data set is classed as cell-based. To be noted: Homo sapiens, EGF 25 ng/mL, read-out: estimated IC50 SRE promoter activity. On the procedure: as §4
Data set [9] deals with A549 lung carcinoma cells. Description: Colony formation assay. The class given is cell-based. To be noted: Homo sapiens, read-out: IC50 growth inhibition, colony formation, A549. On the procedure:
(§5) We have successfully used computer-aided drug design (CADD) to search for low-molecular-weight docking domain inhibitors of ERK. One of the compounds, identified as 76, binds ERK2 with a Kd value of 5 μM and blocks phosphorylation of the downstream ERK targets RSK-1 and Elk-1. Moreover, 76 inhibited growth of HeLa cervical carcinoma and A549 lung carcinoma cells as assessed by colony formation assay in a dose dependent manner with IC50 values of ˜20 μM.

For data set [10], the system named is HeLa cervical carcinoma cells. Nature of the data set: Colony formation assay. To be noted: Homo sapiens, read-out: IC50 growth inhibition, colony formation, HeLa. The class given is cell-based. On the procedure:
as §5

The term GI50 denotes the concentration giving 50% growth inhibition. For orientation: IC50 means the point on the concentration scale where inhibition reaches its midpoint.

Sequence of ERK2 T157A (P63086 whole entry T157A): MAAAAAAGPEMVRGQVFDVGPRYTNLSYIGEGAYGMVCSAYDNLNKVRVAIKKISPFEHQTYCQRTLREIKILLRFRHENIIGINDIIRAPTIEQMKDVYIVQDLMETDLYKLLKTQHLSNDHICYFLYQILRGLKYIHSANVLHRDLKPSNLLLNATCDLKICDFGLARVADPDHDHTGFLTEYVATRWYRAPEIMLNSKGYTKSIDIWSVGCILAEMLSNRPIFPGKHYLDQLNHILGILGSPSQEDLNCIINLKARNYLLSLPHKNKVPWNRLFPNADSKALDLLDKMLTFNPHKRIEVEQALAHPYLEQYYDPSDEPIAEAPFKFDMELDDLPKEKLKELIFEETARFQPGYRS
Sequence of ERK2 T157A/D319N (P63086 whole entry T157A/D319N): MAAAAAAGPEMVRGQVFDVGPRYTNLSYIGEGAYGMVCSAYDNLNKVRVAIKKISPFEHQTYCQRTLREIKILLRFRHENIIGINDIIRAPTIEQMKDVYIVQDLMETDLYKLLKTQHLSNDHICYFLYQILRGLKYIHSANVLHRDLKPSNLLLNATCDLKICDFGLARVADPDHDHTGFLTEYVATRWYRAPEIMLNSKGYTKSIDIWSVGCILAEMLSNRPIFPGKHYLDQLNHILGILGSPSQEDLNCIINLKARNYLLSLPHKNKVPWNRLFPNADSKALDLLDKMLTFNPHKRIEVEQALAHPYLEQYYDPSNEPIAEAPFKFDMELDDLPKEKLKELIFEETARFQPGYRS
Sequence of ERK2 wild type (WT) (P63086 whole entry): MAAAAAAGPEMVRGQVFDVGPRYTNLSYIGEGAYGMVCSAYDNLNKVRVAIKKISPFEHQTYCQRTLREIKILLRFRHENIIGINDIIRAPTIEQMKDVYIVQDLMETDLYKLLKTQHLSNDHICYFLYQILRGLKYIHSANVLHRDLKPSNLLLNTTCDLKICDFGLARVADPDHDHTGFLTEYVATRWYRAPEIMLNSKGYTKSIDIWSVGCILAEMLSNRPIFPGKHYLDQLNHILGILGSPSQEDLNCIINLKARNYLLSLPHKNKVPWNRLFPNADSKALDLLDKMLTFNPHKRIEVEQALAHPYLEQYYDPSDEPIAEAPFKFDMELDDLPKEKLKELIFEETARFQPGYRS
Sequence of ERK2 D319N (P63086 whole entry D319N): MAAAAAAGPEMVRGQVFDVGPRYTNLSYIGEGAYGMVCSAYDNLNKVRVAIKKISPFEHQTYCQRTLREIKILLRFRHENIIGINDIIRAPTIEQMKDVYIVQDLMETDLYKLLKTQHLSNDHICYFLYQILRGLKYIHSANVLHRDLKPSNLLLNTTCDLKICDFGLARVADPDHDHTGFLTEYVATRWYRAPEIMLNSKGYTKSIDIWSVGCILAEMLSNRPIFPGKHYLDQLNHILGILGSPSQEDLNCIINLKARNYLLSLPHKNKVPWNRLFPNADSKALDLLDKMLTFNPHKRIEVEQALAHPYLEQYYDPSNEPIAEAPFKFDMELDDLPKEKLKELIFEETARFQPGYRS

Turning to `CCOc1ccc(/C=C2\SC(=O)N(CCN)C2=O)cc1` [Compound 76, (Z)-3-(2-aminoethyl)-5-(4-ethoxybenzylidene)thiazolidine-2,4-dione], the Kd stood at 5 µM on ERK2 wild type (WT), 6.1 ± 0.6 µM at ERK2 T157A, 7 ± 1 µM at ERK2 D319N and 6.4 ± 0.3 µM on ERK2 T157A/D319N. For the same compound, the “Cell Viability (% of Vehicle) A375” value in the data set with A375 melanoma cells [1] is 2.1 ± 2 % of Vehicle. In the data set on HL-60 leukemic cells, the “Cell Viability (% of Vehicle) HL-60” value was 4.4 ± 1 % of Vehicle. Also, the “Cell Viability (% of Vehicle) HeLa” value in [2] is listed as 53 ± 3 % of Vehicle. Moreover, in data set [3], the “Cell Viability (% of Vehicle) Jurkat” value was 59 ± 5 % of Vehicle. Also, the “Cell Viability (% of Vehicle) RPMI-7951” value with RPMI-7951 melanoma cells is 0.3 ± 0.02 % of Vehicle. In the data set on SK-MEL-28 melanoma cells [4], the “Cell Viability (% of Vehicle) SK-MEL-28” value is recorded as 11 ± 7 % of Vehicle. The GI50 is 29 µM in the data set with A375 melanoma cells [5]; 46 µM in the data set with RPMI7951 melanoma cells; 34 µM in the data set on SK-MEL-28 melanoma cells [6]; above 100 µM in the data set on HeLa cells; above 100 µM with Jurkat cells. Moreover, the half-maximal inhibitory concentration (IC50) was at most 5 µM in data set [7], at most 5 µM in data set [8], around 20 µM in [9] and around 20 µM in data set [10].

The values above are taken from patent US9115122B2, “Non-ATP dependent inhibitors of extracellular signal-regulated kinase (ERK)” (UNIVERSITY OF MARYLAND, BALTIMORE, priority 2012, dated 2015).
